The conditions of data set [1]: cited from earlier work.
Another data set relates to tumor blood vessels. Kind of data set: inhibition of angiogenesis in tumors. Particulars: tivozanib 5 mg/kg daily 5 weeks, capecitabine 300 mg/kg daily two weeks, seven day break, FIG. 4. It is filed as in vivo, mouse. On the procedure: An experiment was designed to evaluate the effect of the combination therapy on angiogenesis (FIG. 4). Tivozanib was dosed at 5 mg/kg daily for 5 weeks. Capecitabine was dosed at 300 mg/kg daily for two weeks, followed by a seven day break, and then an additional two weeks of capecitabine at 300 mg/kg daily.

The conditions of data set [2]: cited from earlier work. The source holds these as a separate data set.
For data set [3] the following is noted: oral administration of capecitabine; human xenograft tumors in mice; cited from earlier work.
Data set [4] concerns Her2-driven breast tumor (BH) model. In words: tumor growth in Her2-driven breast tumor (BH) mouse model. Format: in vivo. The conditions noted are these: tivozanib 5 mg/kg daily, capecitabine 300 mg/kg daily 2 weeks on, 1 week off, oral, more than 4 weeks; FIG. 1. On the procedure: (§1) The Her2-driven breast tumor (BH) model used herein has the following genotype: MMTVrTTA, tetO HER2, INK4A(−/−), luciferase reporter.
When tumors reached approximately 200 mm^3, the mice were randomized into 4 groups of 10 mice each. One group received vehicle control. Each of the other 3 groups were treated with one of the two agents either administered alone or in combination. Both agents were administered orally.
Capecitabine was dosed at 300 mg/kg daily for two weeks followed by a one week break (2 weeks on, 1 week off) for more than 4 weeks.

Data set [5] has the same test system. In words: tumor cell proliferation by Ki67 immunohistochemistry. Format: in vivo, mouse. How it is done:
as §1
To determine the mechanism of action of the combination therapy, capecitabine was administered alone and in combination with tivozanib, over two dosage cycles (FIG. 2A). Capecitabine was dosed at 300 mg/kg daily for two weeks, followed by a seven day break, and then an additional two weeks of capecitabine at 300 mg/kg daily. Tivozanib was dosed at 5 mg/kg daily for 5 weeks.

For data set [6], the system named is thymidine phosphorylase (TP). Kind of data set: TP expression in murine breast tumors after tivozanib, qRT-PCR. (In qPCR the cycle at which signal appears reflects the starting amount.)
Protocol: Murine breast tumors (BH216, BH225, BH229 and BH281) were introduced subcutaneously into nude mice. For each tumor type, when tumors reached approximately 250 mm^3, the mice were randomized into five groups, with three mice in each group. One group received vehicle (0.5% methyl-cellulose) and the remaining groups each received one dose of 5 mg/kg tivozanib. The mice were sacrificed and tumors collected at 0.5, 2, 6 and 16 hours post-dose. RNA was extracted from the tumors and TP expression was analyzed with qRT-PCR.
The conditions of data set [7]: 272-patient Phase 2 clinical trial; cited from earlier work.
Another data set has as its target VEGF receptor 3 (Homo sapiens, UniProt P35916). The conditions noted are these: cited from earlier work.
Data set [8] deals with thymidine phosphorylase (TP). In words: TP induction in BH216-derived primary culture, qRT-PCR. It is filed as cell-based, mouse. The conditions noted are these: cultured BH216 tumor cells; 0.01-1000 nM, 3 hours.
The subject of data set [9] is thymidine phosphorylase (TP). Particulars: BH216 tumors; one dose at or about maximum tolerated dosage; tumors collected after 6 hours (also 24 hours for B20-4.1).
Protocol: Each of the VEGF inhibitors were administered at or about their respective maximum tolerated dosages.
The test system of the next data set is tumor. The conditions noted are these: preclinical models; cited from earlier work.

Each structure is given as a SMILES string. Read-outs that look alike come from different tables or passages of the source.

The source of these data is US20120252829A1, “TIVOZANIB AND CAPECITABINE COMBINATION THERAPY” (priority 2011, published 2012).

Sequence of VEGF receptor 3 (P35916 25-1363): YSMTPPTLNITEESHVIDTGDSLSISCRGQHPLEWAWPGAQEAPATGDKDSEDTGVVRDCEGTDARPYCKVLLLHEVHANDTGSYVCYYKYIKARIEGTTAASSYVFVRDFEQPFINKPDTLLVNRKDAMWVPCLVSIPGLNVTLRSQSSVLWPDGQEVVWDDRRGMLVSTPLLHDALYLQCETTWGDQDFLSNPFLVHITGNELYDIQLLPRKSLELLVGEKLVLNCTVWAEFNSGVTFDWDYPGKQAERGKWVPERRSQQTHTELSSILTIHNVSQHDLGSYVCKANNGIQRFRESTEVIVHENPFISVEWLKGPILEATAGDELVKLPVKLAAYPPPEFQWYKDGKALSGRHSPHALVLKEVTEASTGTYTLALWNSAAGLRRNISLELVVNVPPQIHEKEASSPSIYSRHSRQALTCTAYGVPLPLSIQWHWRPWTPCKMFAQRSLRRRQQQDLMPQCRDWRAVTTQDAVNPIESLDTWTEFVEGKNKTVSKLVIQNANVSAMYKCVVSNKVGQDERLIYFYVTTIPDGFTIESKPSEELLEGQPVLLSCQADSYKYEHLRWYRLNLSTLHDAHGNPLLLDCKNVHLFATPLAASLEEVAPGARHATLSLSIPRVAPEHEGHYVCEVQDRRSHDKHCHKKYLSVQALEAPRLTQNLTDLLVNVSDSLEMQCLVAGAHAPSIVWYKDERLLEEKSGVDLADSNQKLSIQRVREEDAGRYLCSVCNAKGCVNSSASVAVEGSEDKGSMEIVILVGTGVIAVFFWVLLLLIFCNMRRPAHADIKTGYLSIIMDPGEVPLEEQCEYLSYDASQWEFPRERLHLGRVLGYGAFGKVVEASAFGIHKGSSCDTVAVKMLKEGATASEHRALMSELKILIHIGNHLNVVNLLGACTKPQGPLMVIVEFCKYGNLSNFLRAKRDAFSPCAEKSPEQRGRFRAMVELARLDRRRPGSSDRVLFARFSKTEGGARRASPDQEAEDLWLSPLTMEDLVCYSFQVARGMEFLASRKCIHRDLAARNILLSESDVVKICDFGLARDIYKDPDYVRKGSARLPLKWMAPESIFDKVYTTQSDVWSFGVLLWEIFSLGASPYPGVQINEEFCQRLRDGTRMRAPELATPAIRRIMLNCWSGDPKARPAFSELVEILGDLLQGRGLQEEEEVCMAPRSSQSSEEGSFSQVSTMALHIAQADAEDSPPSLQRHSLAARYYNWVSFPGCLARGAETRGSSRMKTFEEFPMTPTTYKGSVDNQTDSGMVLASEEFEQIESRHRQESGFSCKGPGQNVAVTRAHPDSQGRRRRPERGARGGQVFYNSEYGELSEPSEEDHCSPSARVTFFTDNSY

`CCCCCOC(=O)Nc1nc(=O)n([C@@H]2O[C@H](C)[C@@H](O)[C@H]2O)cc1F` [capecitabine, 5′-deoxy-5-fluoro-N-[(pentyloxy)carbonyl]-cytidine]: the side effects entry in [1] (capecitabine, can be severe) was “hand-and-foot syndrome (pain, swelling or redness of your hands or feet), diarrhea, nausea, vomiting, dehydration, sores in the mouth and throat, stomach area pain, tiredness or weakness, fever, and joint and muscle pain”. Also, the angiogenesis result in the data set on tumor blood vessels is reported as “no change in the angiogenesis profile”. In data set [2] (human body), the elimination half-life entry was “approximately ¾”. In data set [3], the “5-FU AUC in tumors versus plasma” value is listed as 100-200 fold. Moreover, the tumor growth result in data set [4] is reported as “only moderate reduction in tumor growth”. Besides, in data set [5] (capecitabine 300 mg/kg daily, first two weeks), the tumor cell proliferation result is “reduced tumor cell proliferation”. In data set [5] (during break periods), the “tumor cell proliferation between capecitabine cycles” value is given as “tumor cell proliferation rebound”.

`O=c1[nH]cc(F)c(=O)[nH]1` [fluorouracil, 5-fluoro-2,4-(1H,3H)-pyrimidinedione]: in data set [2] (after capecitabine, day 14 vs day 1), the “area under the curve (AUC) of fluorouracil, higher at day 14 than day 1” value is given as 35%. Also, the “half-life of primary metabolite of capecitabine” value in data set [2] (relative to parent compound) was “same approximate half-life of the parent compound”.

As for `COc1cc2nccc(Oc3ccc(NC(=O)Nc4cc(C)on4)c(Cl)c3)c2cc1OC` [tivozanib, N-{2-chloro-4-[(6,7-dimethoxy-4-quinolyl)oxy]-phenyl}-N′-(5-methyl-3-isoxazolyl)urea], the “most common side effects” value in [1] (Phase 1, Phase 2 and Phase 3 clinical trials) is “hypertension and dysphonia”. The “up-regulation of TP” value in data set [6] (BH216 tumors, 6 hours after tivozanib 5 mg/kg) is “approximately 8 fold”. For the same compound, the TP expression result in [6] (BH216 tumors, 16 hours post-dose, tivozanib 5 mg/kg) is listed as “significant elevation in TP expression”. Moreover, the TP up-regulation entry in [6] (BH229 tumor, tivozanib 5 mg/kg) is recorded as “no TP up-regulation”; in data set [6] (BH281 tumor, tivozanib 5 mg/kg) it was “no TP up-regulation”. Also, the clinical trial results in data set [7] is given as “positive results”. Also, the inhibitory activity result at VEGF receptor 3 is given as “picomolar”. Moreover, the angiogenesis entry in the data set with tumor blood vessels is reported as “only a reduction in vessel size but not microvessel density”. Further, the “time for serum levels to reach steady state” value in [2] (chronic dosing) is 2-3 weeks. Further, the half-life in data set [2] (human body) was 91.2 to 113 h. Also, the TP induction result in data set [8] is recorded as “TP induction was observed”; in data set [9] it was “significant TP induction”. For the same compound, the tumor growth result in [4] is given as “only moderate reduction in tumor growth”. In addition, the antitumor activity result with tumor is “exhibits antitumor activity”.

A word on the half-life: it is how long it takes for the measured level to halve.
